Read-outs that look alike come from different tables or passages of the source.
What was measured:
[1] = Cytotoxicity in HeLa cells without addition of OC43 virus (in parallel); details: human, HeLa cells, without OC43 virus
[2] = test system: human beta-coronavirus OC43; test: OC43 Coronavirus Assay in HeLa cells (antiviral, cytopathic effect, cell-titer-glo); type: cell-based; details: Betacoronavirus 1, OC43, HeLa, Table B, OC43 coronavirus in HeLa cells, read-out: EC50
SARS-Cov-2 3CLpro = SARS-Cov-2 3CLpro (Severe acute respiratory syndrome coronavirus 2, UniProt P0DTD1); test: biochemical; details: Table A, class symbols, read-out: SARS-Cov-2 (IC50)
[3] = test system: SARS-CoV-2 B.1.1.7 lineage; test: microbe, parasite or virus in culture; type: cell-based; details: Severe acute respiratory syndrome coronavirus 2, Table C, SARS-CoV-2 B.1.1.7 in A549-dual_ACE2_TMPRSS2 cells, read-out: A549-dual_ACE2_TMPRSS2 (EC50)
in vitro = details: human

Structure (SMILES) | CC50 at 6 days [1] [nM] | EC50 ([2]; class symbols) [nM] | IC50 (SARS-Cov-2 3CLpro) [nM] | EC50 ([3]; class symbols) [nM] | CC50 (in vitro) [nM] | EC50 ([3]; cells given as a bound) [nM] | EC50 ([2]; cells given as a bound) [nM]
CN(C(=O)[C@@H](CC1CC1)n1cc(C2CC2)nn1)[C@@H](CC1CC1)C(=O)N1C[C@@]2(C[C@H]1C#N)Oc1cc(F)cc(F)c1NC2=O [Compound 107, (R)—N—((S)-1-((2R,5'S)-5′-cyano-5,7-difluoro-3-oxo-3,4-dihydrospiro[benzo[b][1,4]oxazine-2,3′-pyrrolidin]-1′-yl)-3-cyclopropyl-1-oxopropan-2-yl)-3-cyclopropyl-2-(4-cyclopropyl-1H-1,2,3-triazol-1-yl)-N-methylpropanamide] | > 10000 | 1000 to 10000 | < 20 | 100 to 1000 | > 1000 |  | 
CN(C(=O)[C@H](CC1CC1)NC(=O)C1(F)CC1)[C@@H](CC1CC1)C(=O)N1C[C@@]2(C[C@H]1C#N)Oc1ncccc1NC2=O [Compound 185] | > 10000 | < 100 | < 20 | 100 to 1000 | > 1000 |  | 
CN(C(=O)[C@H](CC1CC1)N1CCOC1=O)[C@@H](CC1CC1)C(=O)N1C[C@@]2(C[C@H]1C#N)Oc1cc(F)cc(F)c1NC2=O [Compound 101] | > 10000 | < 100 | 20 to 200 | 100 to 1000 | > 1000 |  | 
CN(C(=O)C(O)C(C)(C)C)[C@@H](CC1CC1)C(=O)N1C[C@@]2(C[C@H]1C#N)Oc1cc(F)cc(F)c1NC2=O (stereo partly drawn) [Compound 138] | > 10000 | 100 to 1000 | < 20 | 100 to 1000 | > 1000 |  | 
CN(C(=O)[C@H](COC(C)(C)C)NC(=O)C(F)(F)F)[C@@H](CC1CC1)C(=O)N1C[C@@]2(C[C@H]1C#N)Oc1cccnc1NC2=O [Compound 190] | > 10000 | < 100 | < 20 | 100 to 1000 | > 1000 |  | 
CN(C(=O)c1cc2cccnc2[nH]1)[C@@H](CC1CC1)C(=O)N1C[C@@]2(C[C@H]1C#N)Oc1cc(F)cc(F)c1NC2=O [Compound 137] | > 10000 | 1000 to 10000 | 20 to 200 | 100 to 1000 | > 1000 |  | 
Cc1cnc2c(c1)NC(=O)[C@]1(C[C@@H](C#N)N(C(=O)[C@H](CC3CC3)N(C)C(=O)[C@H](CC3CC3)NC(=O)C(F)(F)F)C1)O2 [Compound 126, (S)—N—((S)-1-((3R,5'S)-5′-cyano-7-methyl-2-oxo-1,2-dihydrospiro[pyrido[2,3-b][1,4]oxazine-3,3′-pyrrolidin]-1′-yl)-3-cyclopropyl-1-oxopropan-2-yl)-3-cyclopropyl-N-methyl-2-(2,2,2-trifluoroacetamido)propanamide] | > 10000 | < 100 | < 20 | 100 to 1000 | > 1000 |  | 
CN(C(=O)[C@H](CC1CC1)NC(=O)C(F)(F)F)[C@@H](CC1CC1)C(=O)N1C[C@@]2(C[C@H]1C#N)Oc1cccc(F)c1NC2=O [Compound 56] | > 10000 | < 100 | < 20 | < 100 | > 1000 |  | 
CC1NC(=O)[C@]2(C[C@@H](C#N)N(C(=O)[C@H](CC3CC3)N(C)C(=O)[C@H](CC3CC3)NC(=O)C(F)(F)F)C2)Oc2ccccc21 (stereo partly drawn) [Compound 222, (2S)—N-((2S)-1-((2R,5'S)-5′-cyano-5-methyl-3-oxo-4,5-dihydro-3H-spiro[benzo[f][1,4]oxazepine-2,3′-pyrrolidin]-1′-yl)-3-cyclopropyl-1-oxopropan-2-yl)-3-cyclopropyl-N-methyl-2-(2,2,2-trifluoroacetamido)propanamide] | > 10000 | < 100 | < 20 | < 100 | > 1000 |  | 
CC(C)C[C@@H](C(=O)N1C[C@@]2(C[C@H]1C#N)CC1(CCCC1)NC2=O)N(C)C(=O)[C@H](C)NC(=O)C(F)(F)F [Compound 19] | > 10000 | 100 to 1000 | 20 to 200 | 100 to 1000 | > 1000 |  | 
CN(C(=O)c1cc2c(F)cc(F)c(F)c2[nH]1)[C@@H](CC1CC1)C(=O)N1C[C@@]2(C[C@H]1C#N)Oc1ccccc1CNC2=O [Compound 140] | > 10000 | < 100 | < 20 | < 100 | > 1000 |  | 
CN(C(=O)[C@H](CC1CC1)NC(=O)C(F)(F)F)[C@@H](CC1CC1)C(=O)N1C[C@@]2(C[C@H]1C#N)Oc1ccccc1NC2=O [Compound 182] | > 10000 | < 100 | < 20 | < 100 | > 1000 |  | 
CN(C(=O)[C@H](CC1CC1)NC(=O)C(F)(F)F)[C@@H](CC1CC1)C(=O)N1C[C@@]2(C[C@H]1C#N)Oc1cccnc1NC2=O [Compound 66] | > 10000 | < 100 | < 20 | < 100 | > 1000 |  | 
CN(C(=O)[C@H](CC(F)(F)F)NC(=O)C(F)(F)F)[C@@H](CC1CC1)C(=O)N1C[C@@]2(C[C@H]1C#N)Oc1cccnc1NC2=O [Compound 189] | > 10000 | 100 to 1000 | 20 to 200 | 100 to 1000 | > 1000 |  | 
CN(C(=O)[C@H](CC1CC1)NC(=O)C(F)(F)F)[C@@H](CC1CC1)C(=O)N1C[C@@]2(C[C@H]1C#N)Oc1ccc(F)cc1CNC2=O [Compound 167] | > 10000 | < 100 | < 20 | 100 to 1000 | > 1000 |  | 
C[C@@H](NC(=O)C(F)(F)F)C(=O)N(C)[C@@H](CC1CC1)C(=O)N1C[C@@]2(C[C@H]1C#N)Oc1cc(F)cc(F)c1NC2=O [Compound 83] | > 10000 | 100 to 1000 | 20 to 200 | < 100 | > 1000 |  | 
CN(C(=O)c1cc2c(F)cc(F)c(F)c2[nH]1)[C@@H](CC1CC1)C(=O)N1C[C@@]2(C[C@H]1C#N)Oc1cccnc1NC2=O [Compound 96] | > 10000 | 1000 to 10000 | < 20 | 100 to 1000 | > 1000 |  | 
CN(C(=O)[C@@H](Cc1ccc(F)cc1)NC(=O)C(F)(F)F)[C@@H](CC1CC1)C(=O)N1C[C@@]2(C[C@H]1C#N)Oc1ncccc1NC2=O [Compound 205] | > 10000 | < 100 | < 20 | < 100 | > 1000 |  | 
Cc1cn([C@@H](CC2CC2)C(=O)N(C)[C@@H](CC2CC2)C(=O)N2C[C@@]3(C[C@H]2C#N)Oc2cc(F)cc(F)c2NC3=O)nn1 [Compound 146] | > 10000 | 100 to 1000 | < 20 | 100 to 1000 | > 1000 |  | 
CN(C(=O)[C@H](COc1ccccc1)NC(=O)C(F)(F)F)[C@@H](CC1CC1)C(=O)N1C[C@@]2(C[C@H]1C#N)Oc1cccnc1NC2=O [Compound 202] | > 10000 | 100 to 1000 | < 20 |  | > 1000 | > 1000 | 
COC(=O)N[C@@H](CC1CC1)C(=O)N(C)[C@@H](CC1CC1)C(=O)N1C[C@@]2(C[C@H]1C#N)Oc1ccccc1CNC2=O [Compound 139] | > 10000 | < 100 | < 20 | 100 to 1000 | > 1000 |  | 
C[C@H](NC(=O)C(F)(F)F)C(=O)N(C)[C@@H](CC1CC1)C(=O)N1C[C@@]2(C[C@H]1C#N)Oc1cc(Cl)cnc1NC2=O [Compound 147] | > 10000 | < 100 | < 20 | < 100 | > 1000 |  | 
CN(C(=O)[C@H](CC(F)(F)F)NC(=O)C(F)(F)F)[C@@H](CC1CC1)C(=O)N1C[C@@]2(C[C@H]1C#N)Oc1cc(F)cc(F)c1NC2=O [Compound 85] | > 10000 | 100 to 1000 | < 20 | < 100 | > 1000 |  | 
CN(C(=O)[C@H](CC1CC1)NC(=O)C(F)(F)F)C(CC1CC1)C(=O)N1C[C@@]2(C[C@H]1C#N)Oc1cc(S(C)(=O)=O)ccc1NC2=O (stereo in doubt) [Compound 110, (S)—N—((S)-1-((2R,5'S)-5′-cyano-7-(methylsulfonyl)-3-oxo-3,4-dihydrospiro[benzo[b][1,4]oxazine-2,3′-pyrrolidin]-1′-yl)-3-cyclopropyl-1-oxopropan-2-yl)-3-cyclopropyl-N-methyl-2-(2,2,2-trifluoroacetamido)propanamide] | > 10000 | < 100 | < 20 |  | > 1000 | > 1000 | 
CN(C(=O)C1(NC(=O)C(F)(F)F)CCCCC1)[C@@H](CC1CC1)C(=O)N1C[C@@]2(C[C@H]1C#N)Oc1cccnc1NC2=O [Compound 173] | > 10000 | 1000 to 10000 | 200 to 2000 |  | > 1000 | > 1000 | 
CC(C)C[C@@H](C(=O)N1C[C@]2(C[C@H]1C#N)C(=O)Nc1ccccc1N2C)N(C)C(=O)[C@H](C)NC(=O)C(F)(F)F [Example 42, (S)—N—((S)-1-((3R,5S)-5-cyano-1′-methyl-3′-oxo-3′,4′-dihydro-1′H-spiro[pyrrolidine-3,2′-quinoxalin]-1-yl)-4-methyl-1-oxopentan-2-yl)-N-methyl-2-(2,2,2-trifluoroacetamido) propanamide] | > 10000 |  | 20 to 200 | 100 to 1000 | > 1000 |  | > 10000
CC(C)C[C@@H](C(=O)N1C[C@@]2(C[C@H]1C#N)Oc1cc(F)c(F)cc1NC2=O)N(C)C(=O)[C@H](C)NC(=O)C(F)(F)F [Compound 48] | > 10000 | 100 to 1000 | < 20 | 100 to 1000 | > 1000 |  | 

From patent US20240199647A1, “ANTI-VIRAL COMPOUNDS” (Aligos Therapeutics, Inc., priority 2022, published 2024)
